Source: PubChem BioAssay (NCI)
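Values below derive from 48-hour exposures of cells grown in 96-well plates, with endpoints linearly interpolated between the two concentrations bracketing the appropriate inhibition level. GI50 is the concentration that inhibits growth by half. At the TGI there is no net growth.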

Tests used:
Assay in all cases: inhibition of tumour cell growth, NCI panel, 48 h
NCI/ADR-RES ovarian = tested on: NCI/ADR-RES ovarian
CAKI-1 renal = tested on: CAKI-1 renal
COLO 205 colon = tested on: COLO 205 colon
M14 melanoma = tested on: M14 melanoma
NCI-H460 lung = tested on: NCI-H460 lung
MOLT-4 leukemia = tested on: MOLT-4 leukemia
SK-MEL-5 melanoma = tested on: SK-MEL-5 melanoma
HCC-2998 colon = tested on: HCC-2998 colon
MDA-MB-231 breast = tested on: MDA-MB-231 breast
IGROV1 ovarian = tested on: IGROV1 ovarian
HOP-92 NSCLC = tested on: HOP-92 NSCLC
OVCAR-5 ovarian = tested on: OVCAR-5 ovarian
HS 578T breast = tested on: HS 578T breast
SN12C renal = tested on: SN12C renal
HOP-62 NSCLC = tested on: HOP-62 NSCLC
786-0 renal = tested on: 786-0 renal
EKVX NSCLC = tested on: EKVX NSCLC
NCI-H226 lung = tested on: NCI-H226 lung
SF-539 CNS = tested on: SF-539 CNS
PC-3 prostate = tested on: PC-3 prostate
MDA-MB-435 = tested on: MDA-MB-435
SW-620 colon = tested on: SW-620 colon
NCI-H23 lung = tested on: NCI-H23 lung
MALME-3M melanoma = tested on: MALME-3M melanoma
SK-MEL-28 melanoma = tested on: SK-MEL-28 melanoma
ACHN renal = tested on: ACHN renal
TK-10 renal = tested on: TK-10 renal
LOX IMVI melanoma = tested on: LOX IMVI melanoma
HCT-116 colon = tested on: HCT-116 colon
SF-268 CNS = tested on: SF-268 CNS
SK-MEL-2 melanoma = tested on: SK-MEL-2 melanoma
OVCAR-3 ovarian = tested on: OVCAR-3 ovarian
T-47D breast = tested on: T-47D breast
HT29 colon = tested on: HT29 colon
HCT-15 colon = tested on: HCT-15 colon
HL-60(TB) leukemia = tested on: HL-60(TB) leukemia
A498 renal = tested on: A498 renal
RXF 393 renal = tested on: RXF 393 renal
A549 NSCLC = tested on: A549 NSCLC
CCRF-CEM leukemia = tested on: CCRF-CEM leukemia
SK-OV-3 ovarian = tested on: SK-OV-3 ovarian
DU-145 prostate = tested on: DU-145 prostate
SF-295 CNS = tested on: SF-295 CNS
NCI-H522 lung = tested on: NCI-H522 lung
SR leukemia = tested on: SR leukemia
KM12 colon = tested on: KM12 colon
UACC-62 melanoma = tested on: UACC-62 melanoma
OVCAR-8 ovarian = tested on: OVCAR-8 ovarian
SNB-19 CNS = tested on: SNB-19 CNS
MDA-N = tested on: MDA-N
OVCAR-4 ovarian = tested on: OVCAR-4 ovarian
UACC-257 melanoma = tested on: UACC-257 melanoma
MCF7 breast = tested on: MCF7 breast
SNB-75 CNS = tested on: SNB-75 CNS
UO-31 renal = tested on: UO-31 renal
K-562 leukemia = tested on: K-562 leukemia
U251 CNS = tested on: U251 CNS
RPMI-8226 leukemia = tested on: RPMI-8226 leukemia
BT-549 breast = tested on: BT-549 breast

## O=c1[nH]c(=O)n(C2OC(CO)C(O)C2O)cc1OCCc1ccccc1 (centres undefined)
NCI/ADR-RES ovarian
  TGI: > 100 µM
CAKI-1 renal
  TGI: > 100 µM
COLO 205 colon
  TGI: > 100 µM
M14 melanoma
  TGI: > 100 µM
NCI-H460 lung
  TGI: > 100 µM
MOLT-4 leukemia
  TGI: > 100 µM
SK-MEL-5 melanoma
  TGI: > 100 µM
HCC-2998 colon
  TGI: > 100 µM
MDA-MB-231 breast
  TGI: > 100 µM
IGROV1 ovarian
  TGI: > 100 µM
HOP-92 NSCLC
  TGI: > 100 µM
OVCAR-5 ovarian
  TGI: > 100 µM
HS 578T breast
  TGI: > 100 µM
SN12C renal
  TGI: > 100 µM
HOP-62 NSCLC
  TGI: > 100 µM
786-0 renal
  TGI: > 100 µM
EKVX NSCLC
  TGI: > 100 µM
NCI-H226 lung
  TGI: > 100 µM
SF-539 CNS
  TGI: > 100 µM
PC-3 prostate
  TGI: > 100 µM
MDA-MB-435
  TGI: > 100 µM
SW-620 colon
  TGI: > 100 µM
NCI-H23 lung
  TGI: > 100 µM
MALME-3M melanoma
  TGI: > 100 µM
SK-MEL-28 melanoma
  TGI: > 100 µM
ACHN renal
  TGI: > 100 µM
TK-10 renal
  TGI: > 100 µM
LOX IMVI melanoma
  TGI: > 100 µM
HCT-116 colon
  TGI: > 100 µM
SF-268 CNS
  TGI: > 100 µM
SK-MEL-2 melanoma
  TGI: > 100 µM
OVCAR-3 ovarian
  TGI: > 100 µM
T-47D breast
  TGI: > 100 µM
HT29 colon
  TGI: > 100 µM
HCT-15 colon
  TGI: > 100 µM
HL-60(TB) leukemia
  TGI: > 100 µM
A498 renal
  TGI: > 100 µM
RXF 393 renal
  TGI: > 100 µM
A549 NSCLC
  TGI: > 100 µM
CCRF-CEM leukemia
  TGI: > 100 µM
SK-OV-3 ovarian
  TGI: > 100 µM
DU-145 prostate
  TGI: > 100 µM
SF-295 CNS
  TGI: > 100 µM
NCI-H522 lung
  TGI: > 100 µM
SR leukemia
  TGI: > 100 µM
KM12 colon
  TGI: > 100 µM
UACC-62 melanoma
  TGI: > 100 µM
OVCAR-8 ovarian
  TGI: > 100 µM
SNB-19 CNS
  TGI: > 100 µM
MDA-N
  TGI: > 100 µM
OVCAR-4 ovarian
  TGI: > 100 µM
UACC-257 melanoma
  TGI: > 100 µM
MCF7 breast
  TGI: > 100 µM

## N#CCC12CC=CCC1=C(O)C(=O)c1ccc(O)cc12 (centres undefined)
NCI/ADR-RES ovarian
  TGI: > 100 µM
CAKI-1 renal
  TGI: > 100 µM
COLO 205 colon
  TGI: > 100 µM
M14 melanoma
  TGI: > 100 µM
NCI-H460 lung
  TGI: > 100 µM
SNB-75 CNS
  TGI: > 100 µM
MOLT-4 leukemia
  TGI: > 100 µM
SK-MEL-5 melanoma
  TGI: > 100 µM
UO-31 renal
  TGI: > 100 µM
HCC-2998 colon
  TGI: > 100 µM
MDA-MB-231 breast
  TGI: > 100 µM
IGROV1 ovarian
  TGI: > 100 µM
OVCAR-5 ovarian
  TGI: > 100 µM
HS 578T breast
  TGI: > 100 µM
SN12C renal
  TGI: > 100 µM
HOP-62 NSCLC
  TGI: > 100 µM
786-0 renal
  TGI: > 100 µM
EKVX NSCLC
  TGI: > 100 µM
NCI-H226 lung
  TGI: > 100 µM
SF-539 CNS
  TGI: > 100 µM
PC-3 prostate
  TGI: > 100 µM
MDA-MB-435
  TGI: > 100 µM
SW-620 colon
  TGI: > 100 µM
NCI-H23 lung
  TGI: > 100 µM
MALME-3M melanoma
  TGI: > 100 µM
SK-MEL-28 melanoma
  TGI: > 100 µM
K-562 leukemia
  TGI: > 100 µM
ACHN renal
  TGI: > 100 µM
TK-10 renal
  TGI: > 100 µM
LOX IMVI melanoma
  TGI: > 100 µM
HCT-116 colon
  TGI: > 100 µM
U251 CNS
  TGI: > 100 µM
SF-268 CNS
  TGI: > 100 µM
SK-MEL-2 melanoma
  TGI: > 100 µM
OVCAR-3 ovarian
  TGI: > 100 µM
T-47D breast
  TGI: > 100 µM
HT29 colon
  TGI: > 100 µM
HCT-15 colon
  TGI: > 100 µM
HL-60(TB) leukemia
  TGI: > 100 µM
A498 renal
  TGI: > 100 µM
RXF 393 renal
  TGI: > 100 µM
A549 NSCLC
  TGI: > 100 µM
CCRF-CEM leukemia
  TGI: > 100 µM
SK-OV-3 ovarian
  TGI: > 100 µM
DU-145 prostate
  TGI: > 100 µM
SF-295 CNS
  TGI: > 100 µM
NCI-H522 lung
  TGI: > 100 µM
SR leukemia
  TGI: > 100 µM
KM12 colon
  TGI: > 100 µM
UACC-62 melanoma
  TGI: > 100 µM
OVCAR-8 ovarian
  TGI: > 100 µM
SNB-19 CNS
  TGI: > 100 µM
RPMI-8226 leukemia
  TGI: > 100 µM
MDA-N
  TGI: > 100 µM
OVCAR-4 ovarian
  TGI: > 100 µM
UACC-257 melanoma
  TGI: > 100 µM
MCF7 breast
  TGI: > 100 µM

## O=C(Nc1ccc(Cl)cc1)c1ccc([N+](=O)[O-])o1
NCI/ADR-RES ovarian
  GI50: 2.55 µM
  TGI: 11.4 µM
CAKI-1 renal
  GI50: 2.34 µM
  TGI: 10.1 µM
COLO 205 colon
  GI50: 1.75 µM
  TGI: 3.18 µM
M14 melanoma
  GI50: 1.99 µM
  TGI: 4.28 µM
NCI-H460 lung
  GI50: 2.22 µM
  TGI: 5.55 µM
SNB-75 CNS
  GI50: 1.63 µM
  TGI: 5.38 µM
MOLT-4 leukemia
  GI50: 7.19 µM
  TGI: > 100 µM
SK-MEL-5 melanoma
  GI50: 3.42 µM
  TGI: 13.2 µM
UO-31 renal
  GI50: 1.38 µM
  TGI: 2.96 µM
HCC-2998 colon
  GI50: 1.44 µM
  TGI: 2.98 µM
MDA-MB-231 breast
  GI50: 6.79 µM
  TGI: 47.2 µM
IGROV1 ovarian
  GI50: 3.25 µM
  TGI: 11.2 µM
HOP-92 NSCLC
  GI50: 10.4 µM
  TGI: 27.2 µM
OVCAR-5 ovarian
  GI50: 2.37 µM
  TGI: 5.41 µM
HS 578T breast
  GI50: 2.81 µM
  TGI: 18.6 µM
SN12C renal
  GI50: 1.68 µM
  TGI: 4.12 µM
HOP-62 NSCLC
  GI50: 1.49 µM
  TGI: 3.27 µM
786-0 renal
  GI50: 1.91 µM
  TGI: 4.05 µM
EKVX NSCLC
  GI50: 3.02 µM
  TGI: 12.5 µM
NCI-H226 lung
  GI50: 1.93 µM
  TGI: 4.6 µM
SF-539 CNS
  GI50: 2.22 µM
  TGI: 4.9 µM
PC-3 prostate
  GI50: 2.35 µM
  TGI: > 30.3 µM
MDA-MB-435
  GI50: 2.25 µM
  TGI: 6.2 µM
SW-620 colon
  GI50: 1.12 µM
  TGI: 2.68 µM
NCI-H23 lung
  GI50: 1.81 µM
  TGI: 4.54 µM
MALME-3M melanoma
  GI50: 2.25 µM
  TGI: 5.21 µM
SK-MEL-28 melanoma
  GI50: 1.78 µM
  TGI: 3.79 µM
ACHN renal
  GI50: 1.95 µM
  TGI: 4.07 µM
TK-10 renal
  GI50: 2.4 µM
  TGI: 5.32 µM
LOX IMVI melanoma
  GI50: 1.34 µM
  TGI: 2.97 µM
HCT-116 colon
  GI50: 1.39 µM
  TGI: 3.11 µM
U251 CNS
  GI50: 1.36 µM
  TGI: 2.87 µM
SF-268 CNS
  GI50: 2.98 µM
  TGI: 11.8 µM
SK-MEL-2 melanoma
  GI50: 2.76 µM
  TGI: 6.53 µM
OVCAR-3 ovarian
  GI50: 2.92 µM
  TGI: 9.4 µM
T-47D breast
  GI50: 4.42 µM
  TGI: 23.2 µM
HT29 colon
  GI50: 1.34 µM
  TGI: 3.45 µM
HCT-15 colon
  GI50: 1.48 µM
  TGI: 3.43 µM
HL-60(TB) leukemia
  GI50: 2.63 µM
  TGI: 7.66 µM
A498 renal
  GI50: 3.46 µM
  TGI: 14.8 µM
RXF 393 renal
  GI50: 1.34 µM
  TGI: 3.42 µM
A549 NSCLC
  GI50: 2.64 µM
  TGI: 9.21 µM
CCRF-CEM leukemia
  GI50: 4.11 µM
  TGI: 49.4 µM
SK-OV-3 ovarian
  GI50: 2.64 µM
  TGI: 7.27 µM
DU-145 prostate
  GI50: 3.95 µM
  TGI: 11.4 µM
SF-295 CNS
  GI50: 3.29 µM
  TGI: 12.3 µM
NCI-H522 lung
  GI50: 0.642 µM
  TGI: 1.76 µM
SR leukemia
  GI50: 0.553 µM
  TGI: 16.5 µM
KM12 colon
  GI50: 2.35 µM
  TGI: 6.38 µM
UACC-62 melanoma
  GI50: 1.46 µM
  TGI: 3.1 µM
BT-549 breast
  GI50: 1.9 µM
  TGI: 4.06 µM
OVCAR-8 ovarian
  GI50: 2.99 µM
  TGI: 12.8 µM
SNB-19 CNS
  GI50: 2.6 µM
  TGI: 10.6 µM
RPMI-8226 leukemia
  GI50: 3.72 µM
  TGI: 38.1 µM
OVCAR-4 ovarian
  GI50: 2.11 µM
  TGI: 8.31 µM
UACC-257 melanoma
  GI50: 1.97 µM
  TGI: 5.25 µM
MCF7 breast
  GI50: 1.52 µM
  TGI: 4.19 µM
